# How the values were obtained:
# Pseudomonas aeruginosa = experiment: Bacterial panel testing, MIC by broth microdilution; assay type: cell-based; details: 20-24 hours growth
# Summary of the method: (§1)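 Twofold broth microdilution: compound, prepared at 10 μg/ml in DMSO, serially diluted left to right in inoculated Mueller-Hinton or Brain Heart infusion media. Inoculum from 2-4 h cultures at 37° C, standardized to McFarland density. Plates sealed and grown 20-24 h, then clear wells scored.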
# Lungs cancer cells A549 = experiment: Mammalian cytotoxicity
# Bacillus atrophaeus = experiment: Bacterial panel testing, MIC by broth microdilution; assay type: cell-based; details: 20-24 hours growth
# Summary of the method: as §1
# Enterococcus faecium = experiment: as above; assay type: cell-based; details: 20-24 hours growth
# Summary of the method: as §1
# Eschericia coli = experiment: as above; assay type: cell-based; details: 20-24 hours growth
# Summary of the method: as §1
# Salmonella choleraesuis = experiment: as above; assay type: cell-based; details: 20-24 hours growth
# Summary of the method: as §1
# Staphylococcus aureus = experiment: as above; assay type: cell-based; details: 20-24 hours growth
# Summary of the method: as §1
structure (smiles),measurement,setting,value
COc1cccc(CNCC2OC3OC4C(CNCc5cccc(OC)c5)OC(OC5C(CNCc6cccc(OC)c6)OC(OC6C(CNCc7cccc(OC)c7)OC(OC7C(CNCc8cccc(OC)c8)OC(OC8C(CNCc9cccc(OC)c9)OC(OC9C(CNCc%10cccc(OC)c%10)OC(OC2C(O)C3O)C(O)C9O)C(O)C8O)C(O)C7O)C(O)C6O)C(O)C5O)C(O)C4O)c1 (stereo not shown),MIC PA,Pseudomonas aeruginosa,>200 µg/mL
same,Mammalian Cytotoxicity IC50,Lungs cancer cells A549,282 µg/mL
O[C@@H]1[C@@H](O)[C@H]2O[C@H]3[C@H](O)[C@@H](O)[C@@H](O[C@H]4[C@H](O)[C@@H](O)[C@@H](O[C@H]5[C@H](O)[C@@H](O)[C@@H](O[C@H]6[C@H](O)[C@@H](O)[C@@H](O[C@H]7[C@H](O)[C@@H](O)[C@@H](O[C@H]8[C@H](O)[C@@H](O)[C@@H](O[C@@H]1[C@@H](CNCCc1ccccc1)O2)O[C@@H]8CNCCc1ccccc1)O[C@@H]7CNCCc1ccccc1)O[C@@H]6CNCCc1ccccc1)O[C@@H]5CNCCc1ccccc1)O[C@@H]4CNCCc1ccccc1)O[C@@H]3CNCCc1ccccc1,MIC PA,Pseudomonas aeruginosa,>200 µg/mL
same,Mammalian Cytotoxicity IC50,Lungs cancer cells A549,43 µg/mL
COc1ccccc1CNCC1OC2OC3C(CNCc4ccccc4OC)OC(OC4C(CNCc5ccccc5OC)OC(OC5C(CNCc6ccccc6OC)OC(OC6C(CNCc7ccccc7OC)OC(OC7C(CNCc8ccccc8OC)OC(OC8C(CNCc9ccccc9OC)OC(OC1C(O)C2O)C(O)C8O)C(O)C7O)C(O)C6O)C(O)C5O)C(O)C4O)C(O)C3O (stereo not shown),MIC PA,Pseudomonas aeruginosa,>200 µg/mL
same,Mammalian Cytotoxicity IC50,Lungs cancer cells A549,297 µg/mL
O[C@@H]1[C@@H](O)[C@H]2O[C@H]3[C@H](O)[C@@H](O)[C@@H](O[C@H]4[C@H](O)[C@@H](O)[C@@H](O[C@H]5[C@H](O)[C@@H](O)[C@@H](O[C@H]6[C@H](O)[C@@H](O)[C@@H](O[C@H]7[C@H](O)[C@@H](O)[C@@H](O[C@H]8[C@H](O)[C@@H](O)[C@@H](O[C@@H]1[C@@H](CNC1CCN(Cc9ccccc9)CC1)O2)O[C@@H]8CNC1CCN(Cc2ccccc2)CC1)O[C@@H]7CNC1CCN(Cc2ccccc2)CC1)O[C@@H]6CNC1CCN(Cc2ccccc2)CC1)O[C@@H]5CNC1CCN(Cc2ccccc2)CC1)O[C@@H]4CNC1CCN(Cc2ccccc2)CC1)O[C@@H]3CNC1CCN(Cc2ccccc2)CC1,MIC PA,Pseudomonas aeruginosa,>200 µg/mL
same,Mammalian Cytotoxicity IC50,Lungs cancer cells A549,127 µg/mL
CCCCCCCCNC[C@H]1O[C@@H]2O[C@H]3[C@H](O)[C@@H](O)[C@@H](O[C@H]4[C@H](O)[C@@H](O)[C@@H](O[C@H]5[C@H](O)[C@@H](O)[C@@H](O[C@H]6[C@H](O)[C@@H](O)[C@@H](O[C@H]7[C@H](O)[C@@H](O)[C@@H](O[C@H]8[C@H](O)[C@@H](O)[C@@H](O[C@H]1[C@H](O)[C@H]2O)O[C@@H]8CNCCCCCCCC)O[C@@H]7CNCCCCCCCC)O[C@@H]6CNCCCCCCCC)O[C@@H]5CNCCCCCCCC)O[C@@H]4CNCCCCCCCC)O[C@@H]3CNCCCCCCCC,MIC PA,Pseudomonas aeruginosa,>200 µg/mL
same,Mammalian Cytotoxicity IC50,Lungs cancer cells A549,123 µg/mL
CC(=O)OC1C2OC(Cn3cc(Cc4ccccc4)nn3)C(OC3OC(Cn4cc(Cc5ccccc5)nn4)C(OC4OC(Cn5cc(Cc6ccccc6)nn5)C(OC5OC(Cn6cc(Cc7ccccc7)nn6)C(OC6OC(Cn7cc(Cc8ccccc8)nn7)C(OC7OC(Cn8cc(Cc9ccccc9)nn8)C(OC8OC(Cn9cc(Cc%10ccccc%10)nn9)C(O2)C(OC(C)=O)C8OC(C)=O)C(OC(C)=O)C7OC(C)=O)C(OC(C)=O)C6OC(C)=O)C(OC(C)=O)C5OC(C)=O)C(OC(C)=O)C4OC(C)=O)C(OC(C)=O)C3OC(C)=O)C1OC(C)=O (stereo not shown),MIC BA,Bacillus atrophaeus,>200 µg/mL
same,MIC EF,Enterococcus faecium,>200 µg/mL
same,MIC EC,Eschericia coli,>200 µg/mL
same,MIC PA,Pseudomonas aeruginosa,>200 µg/mL
same,MIC SC,Salmonella choleraesuis,>200 µg/mL
same,MIC SA,Staphylococcus aureus,>200 µg/mL
CC(=O)NCC1OC2OC3C(CNC(C)=O)OC(OC4C(CNC(C)=O)OC(OC5C(CNC(C)=O)OC(OC6C(CNC(C)=O)OC(OC7C(CNC(C)=O)OC(OC8C(CNC(C)=O)OC(OC1C(O)C2O)C(O)C8O)C(O)C7O)C(O)C6O)C(O)C5O)C(O)C4O)C(O)C3O (stereo not shown),MIC BA,Bacillus atrophaeus,>200 µg/mL
same,MIC EF,Enterococcus faecium,>200 µg/mL
same,MIC EC,Eschericia coli,>200 µg/mL
same,MIC PA,Pseudomonas aeruginosa,>200 µg/mL
same,MIC SC,Salmonella choleraesuis,>200 µg/mL
same,MIC SA,Staphylococcus aureus,>200 µg/mL
O=C(C1CCCO1)N1CCN(CC2OC3OC4C(CN5CCN(C(=O)C6CCCO6)CC5)OC(OC5C(CN6CCN(C(=O)C7CCCO7)CC6)OC(OC6C(CN7CCN(C(=O)C8CCCO8)CC7)OC(OC7C(CN8CCN(C(=O)C9CCCO9)CC8)OC(OC8C(CN9CCN(C(=O)C%10CCCO%10)CC9)OC(OC9C(CN%10CCN(C(=O)C%11CCCO%11)CC%10)OC(OC2C(O)C3O)C(O)C9O)C(O)C8O)C(O)C7O)C(O)C6O)C(O)C5O)C(O)C4O)CC1 (stereo not shown),MIC BA,Bacillus atrophaeus,>200 µg/mL
same,MIC EF,Enterococcus faecium,>200 µg/mL
same,MIC EC,Eschericia coli,>200 µg/mL
same,MIC PA,Pseudomonas aeruginosa,>200 µg/mL
same,MIC SC,Salmonella choleraesuis,>200 µg/mL
same,MIC SA,Staphylococcus aureus,>200 µg/mL
OC1C2OC(CN3CCN(c4ccccn4)CC3)C(OC3OC(CN4CCN(c5ccccn5)CC4)C(OC4OC(CN5CCN(c6ccccn6)CC5)C(OC5OC(CN6CCN(c7ccccn7)CC6)C(OC6OC(CN7CCN(c8ccccn8)CC7)C(OC7OC(CN8CCN(c9ccccn9)CC8)C(OC8OC(CN9CCN(c%10ccccn%10)CC9)C(O2)C(O)C8O)C(O)C7O)C(O)C6O)C(O)C5O)C(O)C4O)C(O)C3O)C1O (stereo not shown),MIC BA,Bacillus atrophaeus,>200 µg/mL
same,MIC EF,Enterococcus faecium,>200 µg/mL
same,MIC EC,Eschericia coli,>200 µg/mL
same,MIC PA,Pseudomonas aeruginosa,>200 µg/mL
same,MIC SC,Salmonella choleraesuis,>200 µg/mL
same,MIC SA,Staphylococcus aureus,>200 µg/mL
O[C@@H]1[C@@H](O)[C@H]2O[C@H]3[C@H](O)[C@@H](O)[C@@H](O[C@H]4[C@H](O)[C@@H](O)[C@@H](O[C@H]5[C@H](O)[C@@H](O)[C@@H](O[C@H]6[C@H](O)[C@@H](O)[C@@H](O[C@H]7[C@H](O)[C@@H](O)[C@@H](O[C@H]8[C@H](O)[C@@H](O)[C@@H](O[C@@H]1[C@@H](CSCc1ccccc1)O2)O[C@@H]8CSCc1ccccc1)O[C@@H]7CSCc1ccccc1)O[C@@H]6CSCc1ccccc1)O[C@@H]5CSCc1ccccc1)O[C@@H]4CSCc1ccccc1)O[C@@H]3CSCc1ccccc1,MIC BA,Bacillus atrophaeus,>200 µg/mL
same,MIC EF,Enterococcus faecium,>200 µg/mL
same,MIC EC,Eschericia coli,>200 µg/mL
same,MIC PA,Pseudomonas aeruginosa,>200 µg/mL
same,MIC SC,Salmonella choleraesuis,>200 µg/mL
same,MIC SA,Staphylococcus aureus,>200 µg/mL
Cl.Cl.Cl.Cl.Cl.Cl.Cl.O=C(CN1CCOCC1)NCC1OC2OC3C(CNC(=O)CN4CCOCC4)OC(OC4C(CNC(=O)CN5CCOCC5)OC(OC5C(CNC(=O)CN6CCOCC6)OC(OC6C(CNC(=O)CN7CCOCC7)OC(OC7C(CNC(=O)CN8CCOCC8)OC(OC8C(CNC(=O)CN9CCOCC9)OC(OC1C(O)C2O)C(O)C8O)C(O)C7O)C(O)C6O)C(O)C5O)C(O)C4O)C(O)C3O (stereo not shown),MIC BA,Bacillus atrophaeus,>200 µg/mL
same,MIC EF,Enterococcus faecium,>200 µg/mL
same,MIC EC,Eschericia coli,>200 µg/mL
same,MIC PA,Pseudomonas aeruginosa,>200 µg/mL
same,MIC SC,Salmonella choleraesuis,>200 µg/mL
same,MIC SA,Staphylococcus aureus,>200 µg/mL
CN(C)C[C@H]1O[C@@H]2O[C@H]3[C@H](O)[C@@H](O)[C@@H](O[C@H]4[C@H](O)[C@@H](O)[C@@H](O[C@H]5[C@H](O)[C@@H](O)[C@@H](O[C@H]6[C@H](O)[C@@H](O)[C@@H](O[C@H]7[C@H](O)[C@@H](O)[C@@H](O[C@H]8[C@H](O)[C@@H](O)[C@@H](O[C@H]1[C@H](O)[C@H]2O)O[C@@H]8CN(C)C)O[C@@H]7CN(C)C)O[C@@H]6CN(C)C)O[C@@H]5CN(C)C)O[C@@H]4CN(C)C)O[C@@H]3CN(C)C,MIC BA,Bacillus atrophaeus,<0.2 µg/mL
same,MIC EF,Enterococcus faecium,>200 µg/mL
same,MIC EC,Eschericia coli,>200 µg/mL
same,MIC PA,Pseudomonas aeruginosa,>200 µg/mL
same,MIC SC,Salmonella choleraesuis,>200 µg/mL
same,MIC SA,Staphylococcus aureus,>200 µg/mL
CSCCC(N)C(=O)NCC1OC2OC3C(CNC(=O)C(N)CCSC)OC(OC4C(CNC(=O)C(N)CCSC)OC(OC5C(CNC(=O)C(N)CCSC)OC(OC6C(CNC(=O)C(N)CCSC)OC(OC7C(CNC(=O)C(N)CCSC)OC(OC8C(CNC(=O)C(N)CCSC)OC(OC1C(O)C2O)C(O)C8O)C(O)C7O)C(O)C6O)C(O)C5O)C(O)C4O)C(O)C3O.Cl.Cl.Cl.Cl.Cl.Cl.Cl (stereo not shown),MIC BA,Bacillus atrophaeus,>200 µg/mL
same,MIC EF,Enterococcus faecium,>200 µg/mL
same,MIC EC,Eschericia coli,>200 µg/mL
same,MIC PA,Pseudomonas aeruginosa,>200 µg/mL
same,MIC SC,Salmonella choleraesuis,>200 µg/mL
same,MIC SA,Staphylococcus aureus,>200 µg/mL
CC(C)(C)OC(=O)NCCCC[C@H](N)C(=O)NCC1OC2OC3C(CNC(=O)[C@@H](N)CCCCNC(=O)OC(C)(C)C)OC(OC4C(CNC(=O)[C@@H](N)CCCCNC(=O)OC(C)(C)C)OC(OC5C(CNC(=O)[C@@H](N)CCCCNC(=O)OC(C)(C)C)OC(OC6C(CNC(=O)[C@@H](N)CCCCNC(=O)OC(C)(C)C)OC(OC7C(CNC(=O)[C@@H](N)CCCCNC(=O)OC(C)(C)C)OC(OC8C(CNC(=O)[C@@H](N)CCCCNC(=O)OC(C)(C)C)OC(OC1C(O)C2O)C(O)C8O)C(O)C7O)C(O)C6O)C(O)C5O)C(O)C4O)C(O)C3O (stereo partly shown),MIC BA,Bacillus atrophaeus,>200 µg/mL
same,MIC EF,Enterococcus faecium,>200 µg/mL
same,MIC EC,Eschericia coli,>200 µg/mL
same,MIC PA,Pseudomonas aeruginosa,>200 µg/mL
same,MIC SC,Salmonella choleraesuis,>200 µg/mL
same,MIC SA,Staphylococcus aureus,>200 µg/mL

# Reference: US20110071108A1, “Beta-Cyclodextrin Derivatives as Antibacterial Agents” (Pinnacle Pharmaceuticals, Inc., priority 2005, published 2011)
